Test results published in EPA's ToxValDB 9.5.
“And” between values parts separate entries of the source, which are not always exact repeats. Identical values can stand only once.

What was measured:
Mus musculus = conditions: oral
Rattus norvegicus [1] = test system: Rattus norvegicus
Rattus norvegicus [2] = conditions: short-term, duration: 28 days, oral, gavage, F, Sprague-Dawley
[3] = developmental, duration: 17 days, gavage, F, CD1, Developmental: Delayed postnatal development [eye opening, preputial separation and vaginal opening] and decreased body weight gain …
[4] = developmental, duration: 18 days, gavage, F, Developmental: Decreased number of live births (36 and 31%) and pup survival at 1.1 and 2.0 mg/kg/day, but not […] / decreased number of …
[5] = short-term, duration: 14 days, gavage, M, BALB/c, Body Weight: ~25% decrease in body weight + Hepatic: Increases in liver weight (~160%) and increases in hepatic triglyceride (~66%) and …
[6] = subchronic, duration: 90 days, gavage, M, Reproductive: Decreased sperm motility, viability, and number / degenerative changes in seminiferous tubules / decreased litter size
[7] = short-term, duration: 14 days, oral, gavage, M, Sprague-Dawley, Body Weight: Decreases in body weight at 3 and 5 mg/kg/day (18 and 39%)
[8] = short-term, duration: 14 days, oral, gavage, M, Sprague-Dawley, Immunotoxicological: Decreased relative spleen weight and increases in cytokine levels
[9] = short-term, duration: 14 days, oral, gavage, M, Sprague-Dawley, Other Noncancer (Glucose: Increased serum glucose levels (1.11-fold at 1 mg/kg/day and 1.16-fold at 5 mg/kg/day)
[10] = short-term, duration: 14 days, oral, gavage, M, Sprague-Dawley, Reproductive: 85.4% decrease in serum testosterone and […] increase in estradiol levels at 5 mg/kg/day / atrophy of seminiferous tubule …
[11] = short-term, duration: 14 days, oral, gavage, M, Sprague-Dawley, Reproductive: Large vacuoles between testicular Sertoli cells and spermatogonia

With O=C(O)C(F)(F)C(F)(F)C(F)(F)C(F)(F)C(F)(F)C(F)(F)C(F)(F)C(F)(F)F [Perfluorononanoic acid] the NOAEL (Mus musculus; developmental, duration: 16 days, gavage, M/F, CD1, developmental) was 1 mg/kg-day, the LOAEL (Mus musculus; [3]) was 3 mg/kg-day and 5 mg/kg-day and the NOAEL (Mus musculus; [3]) was 1 mg/kg-day. It also gave an NOAEL (Mus musculus; developmental, duration: 18 days, gavage, F, Body Weight: No alterations in maternal body weight or gestational weight gain + Developmental: No alterations in the number of live pups …) of 2 mg/kg-day, an LOAEL (Mus musculus; [4]) of 1.1 mg/kg-day and an NOAEL (Mus musculus; [4]) of 0.83 mg/kg-day. The LOAEL (Mus musculus; reproduction developmental, duration: 17 days, gavage, F, CD1, Body Weight: 43% maternal weight loss at GD 13) was 10 mg/kg-day, the NOAEL (Mus musculus; reproduction developmental, duration: 17 days, gavage, F, CD1, Hepatic: Increases in absolute and relative liver weights in dams on GD 17 and on post-weaning day 28 at ?1 mg/kg/day) was 10 mg/kg-day and the NOAEL (Mus musculus; reproduction developmental, duration: 18 days, gavage, F, Body Weight: No alterations in maternal body weight or gestational weight gain + Hepatic: Increase in dam liver weight at ?0.83 mg/kg/day) was 2 mg/kg-day. The NOAEL (Mus musculus; short-term, duration: 7 days, gavage, M, Hepatic: Hepatocellular hypertrophy, steatosis, and increased hepatic triglyceride levels) was 10 mg/kg-day, the LOAEL (Mus musculus; short-term, duration: 14 days, diet, M/F, CD1, Death: 100% mortality before day 14) was 54 mg/kg-day and the NOAEL (Mus musculus; short-term, duration: 14 days, diet, M/F, CD1, Hepatic: 50-70% increase in absolute liver weight at ?0.5 mg/kg/day) was 5.3 mg/kg-day. It also gave an LOAEL (Mus musculus; [5]) of 5 mg/kg-day, an NOAEL (Mus musculus; [5]) of 1 mg/kg-day and an LOAEL (Mus musculus; short-term, duration: 14 days, gavage, M, BALB/c, Immunotoxicological: Decreases in the percentages of F4/80+ and CD49b+ cells in the spleen / no alteration in the response of splenic …) of 1 mg/kg-day. For the same molecule, the NOAEL (Mus musculus; subchronic, duration: 90 days, gavage, M, Hepatic: 33% decrease in serum cholesterol) was 0.5 mg/kg-day, the LOAEL (Mus musculus; [6]) was 0.5 mg/kg-day and the NOAEL (Mus musculus; [6]) was 0.2 mg/kg-day. For the same molecule, the NOAEL (Rattus norvegicus [1]; acute, duration: 4 hours, inhalation, nose only, M, CD, Body Weight: Reduced 18% 5 days after exposure + Hepatic: 28% increase in absolute liver weight 5 days after exposure to ?67 mg/m3 + …) was 67 mg/m3, the LOAEL (Rattus norvegicus [1]; acute, duration: 4 hours, inhalation, nose only, M, CD, Body Weight: Reduced 18% 5 days after exposure + Respiratory: Lung noise / labored breathing during and after exposure) was 590 mg/m3 and the LOAEL (Rattus norvegicus [1]; acute, duration: 4 hours, inhalation, nose only, M, CD, Death: 14-day LC50) was 820 mg/m3. The LOAEL (Rattus norvegicus [1]; developmental, duration: 20 days, oral, gavage, M/F, Sprague-Dawley, Body Weight: Reduced maternal body weight / approximately 33% on GD 7 and 10% on GD 20 + Developmental: Decreased birth weight in female …) was 5 mg/kg-day, the LOAEL (Rattus norvegicus [1]; [7]) was 3 mg/kg-day and the NOAEL (Rattus norvegicus [1]; [7]) was 1 mg/kg-day. For the same molecule, the NOAEL (Rattus norvegicus [1]; short-term, duration: 14 days, oral, gavage, M, Sprague-Dawley, Hepatic: Decreased HDL levels at ?1 mg/kg/day) was 5 mg/kg-day, the NOAEL (Rattus norvegicus [1]; short-term, duration: 14 days, oral, gavage, M, Sprague-Dawley, Hepatic: Hepatocellular vacuolation and lipid accumulation at 5 mg/kg/day) was 5 mg/kg-day and the LOAEL (Rattus norvegicus [1]; short-term, duration: 14 days, oral, gavage, M, Sprague-Dawley, Immunotoxicological: 24% increase in relative thymus weight at 1 mg/kg/day / 20% decrease in thymus weight at 3 or 5 mg/kg/day, increases …) was 1 mg/kg-day. For the same molecule, the LOAEL (Rattus norvegicus [1]; [8]) was 5 mg/kg-day, the NOAEL (Rattus norvegicus [1]; [8]) was 3 mg/kg-day and the LOAEL (Rattus norvegicus [1]; [9]) was 1 mg/kg-day. The NOAEL (Rattus norvegicus [1]; [9]) was 0.2 mg/kg-day, the LOAEL (Rattus norvegicus [1]; [10]) was 5 mg/kg-day and the NOAEL (Rattus norvegicus [1]; [10]) was 3 mg/kg-day. It also gave an LOAEL (Rattus norvegicus [1]; [11]) of 5 mg/kg-day, an NOAEL (Rattus norvegicus [1]; [11]) of 3 mg/kg-day and an LOAEL (Rattus norvegicus [1]; short-term, duration: 14 days, oral, gavage, Wistar, Body Weight: Decreased body weight / magnitude of effect was not reported + Endocrine: Decreased androstenedione and testosterone …) of 5 mg/kg-day. It also gave an LOEL (Rattus norvegicus [2]; Clinical chemistry_Alanine aminotransferase) of 3.12 mg/kg-day, an LOEL (Rattus norvegicus [2]; Clinical chemistry_Albumin) of 1.56 mg/kg-day and an LOEL (Rattus norvegicus [2]; Clinical chemistry_Albumin/globulin ratio) of 1.56 mg/kg-day. For the same molecule, the LOEL (Rattus norvegicus [2]; Clinical chemistry_Alkaline phosphatase) was 3.12 mg/kg-day, the NOEL (Rattus norvegicus [2]; Clinical chemistry_Aspartate aminotransferase) was 25 mg/kg-day and the NOEL (Rattus norvegicus [2]; Clinical chemistry_Cholesterol) was 25 mg/kg-day. It also gave an NOEL (Rattus norvegicus [2]; Clinical chemistry_Creatinine kinase) of 25 mg/kg-day, an LOEL (Rattus norvegicus [2]; Clinical chemistry_Direct bilirubin) of 6.25 mg/kg-day and an LOEL (Rattus norvegicus [2]; Clinical chemistry_Free thyroxine) of 3.12 mg/kg-day. It also gave an LOEL (Rattus norvegicus [2]; Clinical chemistry_Globulin) of 1.56 mg/kg-day, an NOEL (Rattus norvegicus [2]; Clinical chemistry_Indirect bilirubin) of 25 mg/kg-day and an LOEL (Rattus norvegicus [2]; Clinical chemistry_Sorbitol dehydrogenase) of 1.56 mg/kg-day. It also gave an LOEL (Rattus norvegicus [2]; Clinical chemistry_Testosterone) of 1.56 mg/kg-day, an NOEL (Rattus norvegicus [2]; Clinical chemistry_Thyroid stimulating hormone) of 25 mg/kg-day and an LOEL (Rattus norvegicus [2]; Clinical chemistry_Total bile acids) of 3.12 mg/kg-day. It also gave an NOEL (Rattus norvegicus [2]; Clinical chemistry_Total bilirubin) of 25 mg/kg-day, an LOEL (Rattus norvegicus [2]; Clinical chemistry_Total protein) of 1.56 mg/kg-day and an LOEL (Rattus norvegicus [2]; Clinical chemistry_Total thyroxine) of 3.12 mg/kg-day. The NOEL (Rattus norvegicus [2]; Clinical chemistry_Total triiodothyronine) was 25 mg/kg-day, the NOEL (Rattus norvegicus [2]; Clinical chemistry_Triglycerides) was 25 mg/kg-day and the LOEL (Rattus norvegicus [2]; Gene expression_Acox1) was 1.56 mg/kg-day. It also gave an LOEL (Rattus norvegicus [2]; Gene expression_Cyp2b1) of 1.56 mg/kg-day, an LOEL (Rattus norvegicus [2]; Gene expression_Cyp2b2) of 1.56 mg/kg-day and an LOEL (Rattus norvegicus [2]; Gene expression_Cyp4a1) of 1.56 mg/kg-day. The NOEL (Rattus norvegicus [2]; Hematology_Erythrocytes) was 25 mg/kg-day, the NOEL (Rattus norvegicus [2]; Hematology_Hematocrit) was 25 mg/kg-day and the NOEL (Rattus norvegicus [2]; Hematology_Hemoglobin) was 25 mg/kg-day. It also gave an NOEL (Rattus norvegicus [2]; Hematology_Mean corpuscular hemoglobin concentration) of 25 mg/kg-day, an NOEL (Rattus norvegicus [2]; Hematology_Mean corpuscular volume) of 25 mg/kg-day and an NOEL (Rattus norvegicus [2]; Hematology_Platelets) of 25 mg/kg-day. For the same molecule, the NOEL (Rattus norvegicus [2]; Hematology_Reticulocytes) was 25 mg/kg-day, the LOEL (Rattus norvegicus [2]; Nonneoplastic effects_Bone marrow - Hypocellularity) was 12.5 mg/kg-day and the LOEL (Rattus norvegicus [2]; Nonneoplastic effects_Forestomach - Epithelium, hyperplasia) was 12.5 mg/kg-day. The NOEL (Rattus norvegicus [2]; Nonneoplastic effects_Kidney - Nephropathy, chronic progressive) was 25 mg/kg-day, the LOEL (Rattus norvegicus [2]; Nonneoplastic effects_Liver - Hepatocyte, Necrosis) was 12.5 mg/kg-day and the LOEL (Rattus norvegicus [2]; Nonneoplastic effects_Liver - Hepatocyte, cytoplasmic alteration) was 1.56 mg/kg-day. It also gave an LOEL (Rattus norvegicus [2]; Nonneoplastic effects_Liver - Hepatocyte, hypertrophy) of 6.25 mg/kg-day, an NOEL (Rattus norvegicus [2]; Nonneoplastic effects_Liver - Hepatocyte, vacuolization cytoplasmic) of 25 mg/kg-day and an LOEL (Rattus norvegicus [2]; Nonneoplastic effects_Lymph nodes - Mandibular, atrophy) of 12.5 mg/kg-day. The LOEL (Rattus norvegicus [2]; Nonneoplastic effects_Lymph nodes - Mesenteric, atrophy) was 12.5 mg/kg-day, the LOEL (Rattus norvegicus [2]; Nonneoplastic effects_Nose - Olfactory epithelium, degeneration) was 25 mg/kg-day and the NOEL (Rattus norvegicus [2]; Nonneoplastic effects_Nose - Olfactory epithelium, hyperplasia) was 25 mg/kg-day. For the same molecule, the NOEL (Rattus norvegicus [2]; Nonneoplastic effects_Nose - Olfactory epithelium, inflammation, suppurative) was 25 mg/kg-day, the NOEL (Rattus norvegicus [2]; Nonneoplastic effects_Nose - Respiratory epithelium, hyperplasia) was 25 mg/kg-day and the NOEL (Rattus norvegicus [2]; Nonneoplastic effects_Nose - Respiratory epithelium, inflammation, chronic active) was 25 mg/kg-day. It also gave an LOEL (Rattus norvegicus [2]; Nonneoplastic effects_Spleen - Atrophy) of 12.5 mg/kg-day, an NOEL (Rattus norvegicus [2]; Nonneoplastic effects_Spleen - Extramedullary hematopoiesis, increased) of 25 mg/kg-day and an LOEL (Rattus norvegicus [2]; Nonneoplastic effects_Thymus - Atrophy) of 12.5 mg/kg-day. The NOEL (Rattus norvegicus [2]; Nonneoplastic effects_Thymus - Lymphocyte, apoptosis) was 25 mg/kg-day and the NOEL (Rattus norvegicus [2]; Nonneoplastic effects_Thyroid gland - Follicular cell hypertrophy) was 25 mg/kg-day.
